# According to US12478624B2, “Heterocyclic derivatives, pharmaceutical compositions and their use in the treatment or amelioration of cancer” (Tolremo Therapeutics AG, priority 2019, dated 2025):
# What was measured:
# [1] = system: A375 cells; test: Assay 1: A375 cells treated with S1152, S1008 and compound, immunofluorescence (sc-365823) signal; type: cell-based; details: 1 μM S1152 + 0.5 μM S1008, one day
# In short: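 A375 cells treated one day with 1 μM S1152, 0.5 μM S1008 and compound dose ranges in DMEM/10% FCS, then fixed, permeabilised and immunostained. Green signal normalised to nuclear counterstain (ethidium-type or DAPI), log ratio fitted by four-parameter regression for EC50.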
# [2] = system: OPM-2; test: Assay 2: multiple myeloma cellular efficacy, PrestoBlue cell proliferation/survival; type: cell-based; details: Homo sapiens, 96 h, OPM-2 cells, 4 days
# In short: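 Cells seeded at 10000/well and exposed to a compound dose range or vehicle for 4 days, then stained with PrestoBlue for 2 h at 37 °C. Fluorescence was background-subtracted and normalized to vehicle; EC50 came from a four-parameter variable-slope fit against log concentration.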
# [3] = molecular target: T1, CBP Bromodomain (Homo sapiens, UniProt Q92793); test: Assay 3: CBP bromodomain binding assay (TR-FRET)
# T1 construct: purchased Cayman chemicals 600850
# T1 sequence (Q92793 1085-1192 limits assumed): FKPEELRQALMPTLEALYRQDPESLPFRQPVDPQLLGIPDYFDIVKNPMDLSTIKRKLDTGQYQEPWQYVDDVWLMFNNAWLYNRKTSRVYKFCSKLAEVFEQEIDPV
# Procedure: Assay 3 CBP Bromodomain Binding Assay (TR-FRET)
# Compounds solutions of 10 mM in DMSO were pre-diluted in DSMO to 25× stock solutions in DMSO. These were then diluted down to 4× in assay buffer. A dilution series in assay buffer was performed keeping the DMSO concentration stable. 5 μl compound in assay buffer was transferred into the assay plate (provided by assay kit) and the TR-FRET assay Cayman chemicals; 600850) was performed using the manufactor's instructions. After 1 hour incubation at room temperature in the darks, assay plates were read in a Tecan M1000 plate reader or a Tecan Spaks reader using the TR-FRET mode (top read; excitation 340 nm bandwidth […]; emission 620 nm bandwidth […]; gain optimal determined for the first well, number of flashes: 5; flash frequency 100 Hz; integration time: 500 μs, lag time: 100 μs, room temperature). The TR-FRET ratio was calculated by deviding 670 nm emission by 620 nm emission. Values were log transformed and non-linear regression with variable slope (4 parameters) was used to fit values to a dose-response curve to evaluate EC50 values.
compound,measurement,setting,value
"CC(=O)N1C[C@H](c2nc(Nc3ccnc(-c4cn(C)nn4)c3)cc(-c3cnccn3)n2)CC[C@@H]1C [Compound 00168, 1-((2S,5R)-2-methyl-5-(4-((2-(1-methyl-1H-1,2,3-triazol-4-yl)pyridin-4-yl)amino)-6-(pyrazin-2-yl)pyrimidin-2-yl)piperidin-1-yl)ethan-1-one]",EC50,[1],< 200 nM
same,EC50,[2],< 200 nM
same,EC50,[3],< 200 nM
"CC(=O)N1C[C@H](c2nc(Nc3ccccc3)cc(-c3cncc4[nH]ccc34)n2)CC[C@@H]1C (racemic) [Compound 00073, (+/−)-c/s-1-(2-methyl-5-(4-(phenylamino)-6-(1H-pyrrolo[2,3-c]pyridin-4-yl)pyrimidin-2-yl)piperidin-1-yl)ethan-1-one]",EC50,[1],< 200 nM
same,EC50,[2],< 200 nM
same,EC50,[3],< 200 nM
"CC(=O)N1C[C@H](c2nc(Nc3cccc(-c4cnn(C)c4)c3)cc(-c3cnccn3)n2)CC[C@@H]1C [Compound 00065, 1-((2S,5R)-2-methyl-5-(4-((3-(1-methyl-1H-pyrazol-4-yl)phenyl)amino)-6-(pyrazin-2-yl)pyrimidin-2-yl)piperidin-1-yl)ethan-1-one]",EC50,[1],< 200 nM
same,EC50,[2],< 200 nM
same,EC50,[3],< 200 nM
"CC(=O)N1C[C@H](c2nc(Nc3cccc(C(F)F)c3)cc(-c3cccnc3)n2)CC[C@@H]1C [Compound 00039, 1-((2S,5R)-5-(4-((3-(difluoromethyl)phenyl)amino)-6-(pyridin-3-yl)pyrimidin-2-yl)-2-methylpiperidin-1-yl)ethan1-one]",EC50,[1],< 200 nM
same,EC50,[2],< 200 nM
same,EC50,[3],200 to 1000 nM
"CC(=O)N1C[C@H](c2nc(Nc3cccc4nn(C)cc34)cc(-c3cccnc3)n2)CC[C@@H]1C [Compound 00045, 1-((2S,5R)-2-methyl-5-(4-((2-methyl-2H-indazol-4-yl)amino)-6-(pyridin-3-yl)pyrimidin-2-yl)piperidin-1-yl)ethan-1-one]",EC50,[1],< 200 nM
same,EC50,[2],200 to 1000 nM
same,EC50,[3],< 200 nM
"CC(=O)N1C[C@H](c2nc(Nc3cccc(-c4cnn(C)c4)c3)cc(-c3cccnc3)n2)CC[C@@H]1C [Compound 00044, 1-((2S,5R)-2-methyl-5-(4-((3-(1-methyl-1H-pyrazol-4-yl)phenyl)amino)-6-(pyridin-3-yl)pyrimidin-2-yl)piperidin-1-yl)ethan-1-one]",EC50,[1],< 200 nM
same,EC50,[2],< 200 nM
same,EC50,[3],< 200 nM
"CC(=O)N1C[C@H](c2nc(Nc3cc(C)nc(F)c3)cc(-c3cnccn3)n2)CC[C@@H]1C [Compound 00149, 1-((2S,5R)-5-(4-((2-fluoro-6-methylpyridin-4-yl)amino)-6-(pyrazin-2-yl)pyrimidin-2-yl)-2-methylpiperidin-1-yl)ethan1-one]",EC50,[1],< 200 nM
same,EC50,[2],< 200 nM
same,EC50,[3],< 200 nM
"CC(=O)N1C[C@H](c2nc(Nc3ccc4nccn4c3)cc(-c3cccnc3)n2)CC[C@@H]1C [Compound 00013, 1-((2S,5R)-5-(4-(imidazo[1,2-a]pyridin-6-ylamino)-6-(pyridin-3-yl)pyrimidin-2-yl)-2-methylpiperidin-1-yl)ethan-1-one]",EC50,[1],1000 to 10000 nM
same,EC50,[3],200 to 1000 nM
"CC(=O)N1C[C@H](c2nc(Nc3ccnc(F)c3)cc(-c3cnccn3)n2)CC[C@@H]1C [Compound 00128, 1-((2S,5R)-5-(4-((2-fluoropyridin-4-yl)amino)-6-(pyrazin-2-yl)pyrimidin-2-yl)-2-methylpiperidin-1-yl)ethan-1-one]",EC50,[1],< 200 nM
same,EC50,[2],< 200 nM
same,EC50,[3],< 200 nM
"CC(=O)N1C[C@H](c2nc(Nc3ccnc(C(C)C)c3)cc(-c3cnccn3)n2)CC[C@@H]1C [Compound 00153, 1-((2S,5R)-5-(4-((2-isopropylpyridin-4-yl)amino)-6-(pyrazin-2-yl)pyrimidin-2-yl)-2-methylpiperidin-1-yl)ethan-1-one]",EC50,[1],< 200 nM
same,EC50,[2],200 to 1000 nM
same,EC50,[3],< 200 nM
"CC(=O)N1C[C@H](c2nc(Nc3ccncc3)cc(-c3cccnc3)n2)CC[C@@H]1C (racemic) [Compound 00101, (+/−)-c/s-1-(2-methyl-5-(4-(pyridin-3-yl)-6-(pyridin-4-ylamino)pyrimidin-2-yl)piperidin-1-yl)ethan-1-one]",EC50,[1],200 to 1000 nM
same,EC50,[3],200 to 1000 nM
"CC(=O)N1C[C@H](c2nc(Nc3cccc(-c4cn(C)nn4)c3)cc(-c3cncc4c3ccn4C)n2)CC[C@@H]1C [Compound 00086, 1-((2S,5R)-2-methyl-5-(4-((3-(1-methyl-1H-1,2,3-triazol-4-yl)phenyl)amino)-6-(1-methyl-1H-pyrrolo[2,3-c]pyridin-4-yl)pyrimidin-2-yl)piperidin-1-yl)ethan-1-one]",EC50,[1],< 200 nM
same,EC50,[2],< 200 nM
same,EC50,[3],< 200 nM
"CC(=O)N1C[C@H](c2nc(Nc3cc(F)cc(-c4cnn(C)c4)c3)cc(-c3cnccn3)n2)CC[C@@H]1C [Compound 00066, 1-((2S,5R)-5-(4-((3-fluoro-5-(1-methyl-1H-pyrazol-4-yl)phenyl)amino)-6-(pyrazin-2-yl)pyrimidin-2-yl)-2-methylpiperidin-1-yl)ethan-1-one]",EC50,[1],< 200 nM
same,EC50,[2],< 200 nM
same,EC50,[3],1000 to 10000 nM
"CNC(=O)c1cc(F)cc(Nc2cc(-c3cccnc3)nc([C@@H]3CC[C@H](C)N(C(C)=O)C3)n2)c1 [Compound 00041, 3-((2-((3R,6S)-1-acetyl-6-methylpiperidin-3-yl)-6-(pyridin-3-yl)pyrimidin-4-yl)amino)-5-fluoro-N-methylbenzamide]",EC50,[1],< 200 nM
same,EC50,[2],< 200 nM
same,EC50,[3],< 200 nM
"CC(=O)N1C[C@H](c2nc(Nc3ccnc(C)c3)cc(-c3cncc(C)c3)n2)CC[C@@H]1C [Compound 00103, 1-((2S,5R)-2-methyl-5-(4-(5-methylpyridin-3-yl)-6-((2-methylpyridin-4-yl)amino)pyrimidin-2-yl)piperidin-1-yl)ethan-1-one]",EC50,[1],< 200 nM
same,EC50,[2],< 200 nM
same,EC50,[3],< 200 nM
"CC(=O)N1C[C@H](c2nc(Nc3ccnc(F)c3)cc(-c3cccnc3)n2)CC[C@@H]1C [Compound 00104, 1-((2S,5R)-5-(4-((2-fluoropyridin-4-yl)amino)-6-(pyridin-3-yl)pyrimidin-2-yl)-2-methylpiperidin-1-yl)ethan-1-one]",EC50,[1],< 200 nM
same,EC50,[2],< 200 nM
same,EC50,[3],< 200 nM
"CC(=O)Nc1cc(F)cc(Nc2cc(-c3cncc4c3ccn4C)nc([C@@H]3CC[C@H](C)N(C(C)=O)C3)n2)c1 [Compound 00092, N-(3-((2-((3R,6S)-1-acetyl-6-methylpiperidin-3-yl)-6-(1-methyl-1H-pyrrolo[2,3-c]pyridin-4-yl)pyrimidin-4-yl)amino)-5-fluorophenyl)acetamide]",EC50,[1],< 200 nM
same,EC50,[2],< 200 nM
same,EC50,[3],< 200 nM
"CC(=O)N1C[C@H](c2nc(Nc3cncc(C)c3)cc(-c3cnccn3)n2)CC[C@@H]1C [Compound 00001, 1-((2S,5R)-2-methyl-5-(4-((5-methylpyridin-3-yl)amino)-6-(pyrazin-2-yl)pyrimidin-2-yl)piperidin-1-yl)ethan-1-one]",EC50,[1],< 200 nM
same,EC50,[3],< 200 nM
"CC(=O)N1C[C@H](c2nc(Nc3ccc4[nH]ncc4c3)cc(-c3cccnc3)n2)CC[C@@H]1C [Compound 00030, 1-((2S,5R)-5-(4-((1H-indazol-5-yl)amino)-6-(pyridin-3-yl)pyrimidin-2-yl)-2-methylpiperidin-1-yl)ethan-1-one]",EC50,[1],< 200 nM
same,EC50,[3],200 to 1000 nM
"CC(=O)N1C[C@H](c2nc(Nc3cc(F)cc(-c4cn(C)nn4)c3)cc(-c3cnccn3)n2)CC[C@@H]1C [Compound 00069, 1-((2S,5R)-5-(4-((3-fluoro-5-(1-methyl-1H-1,2,3-triazol-4-yl)phenyl)amino)-6-(pyrazin-2-yl)pyrimidin-2-yl)-2-methylpiperidin-1-yl)ethan-1-one]",EC50,[1],< 200 nM
same,EC50,[2],< 200 nM
same,EC50,[3],< 200 nM
"CC(=O)N1C[C@H](c2nc(Nc3cc(F)c4cn[nH]c4c3)cc(-c3cccnc3)n2)CC[C@@H]1C [Compound 00040, 1-((2S,5R)-5-(4-((4-fluoro-1H-indazol-6-yl)amino)-6-(pyridin-3-yl)pyrimidin-2-yl)-2-methylpiperidin-1-yl)ethan-1-one]",EC50,[1],< 200 nM
same,EC50,[3],< 200 nM
"CC(=O)N1C[C@H](c2nc(Nc3cc(F)cc(-c4cnoc4)c3)cc(-c3cccnc3)n2)CC[C@@H]1C [Compound 00046, 1-((2S,5R)-5-(4-((3-fluoro-5-(isoxazol-4-yl)phenyl)amino)-6-(pyridin-3-yl)pyrimidin-2-yl)-2-methylpiperidin-1-yl)ethan-1-one]",EC50,[1],< 200 nM
same,EC50,[3],< 200 nM
"CC(=O)N1C[C@H](c2nc(Nc3ccccc3)cc(-n3cnc(C)c3)n2)CC[C@@H]1C [Compound 00163, 1-((2S,5R)-2-methyl-5-(4-(4-methyl-1H-imidazol-1-yl)-6-(phenylamino)pyrimidin-2-yl)piperidin-1-yl)ethan-1-one]",EC50,[1],1000 to 10000 nM
same,EC50,[3],1000 to 10000 nM
"C[C@H]1CC[C@@H](c2nc(Nc3cccc(F)c3)cc(-c3cccnc3)n2)CN1C(N)=O [Compound 00165, (2S,5R)-5-(4-((3-fluorophenyl)amino)-6-(pyridin-3-yl)pyrimidin-2-yl)-2-methylpiperidine-1-carboxamide]",EC50,[1],1000 to 10000 nM
same,EC50,[3],1000 to 10000 nM
